{"source": "patent US9237744B2", "about": "“Preservative solution for cells, tissues and organs containing rare sugar and preservative method thereof” (NATIONAL UNIVERSITY CORPORATION KAGAWA UNIVERSITY, priority 2004, dated 2016)", "key": {"[1]": {"details": "Murata et al., J. Bioengineering and Bioscience, 2003; cited from earlier work"}, "MPO": {"test_system": "MPO", "assay": "Renal ischemic reperfusion model, MPO as index of accumulation of leukocytes", "type": "in vivo, rat", "details": "400 mg/kg intravenously 30 minutes before renal ischemia; peak after 6 hours of reperfusion (FIG. 13)", "procedure": "Object: male rats with a body weight of 200˜250 g Experimental method: After anesthetization of a rat with nenbutal, a renal ischemic model is prepared. Renal ischemic model: After extraction of the right kidney, the left kidney blood vessel is clamped for 45 minutes. 400 mg/kg of the solution is intravenously administered to the D-allose group 30 minutes before the renal ischemia. A raw feed is administered to the control group. Estimation: Change with time of a CINC-1 protein amount and MPO as an index of accumulation of leukocytes after ischemic reperfusion"}, "[2]": {"test_system": "Hela, OVCAR-3, HaCaT, HFB and NIH3T3 cells", "assay": "Cell growth after thawing of cells freeze-preserved at optimum concentrations, MTT assay (Example 2)", "type": "cell-based, human, mouse", "procedure": "1. Cells used: Hela (human cervical cancer), OVCAR-3 (human ovarian cancer), HaCaT (human skin keratinocyte), HFB (human fibroblast) and NIH3T3 (mouse fibroblast). Saccharides D-allose and the like were added to culture medium, Cell Banker (commercially available preservative solution) and DMSO at concentrations of 0.2, 0.4, 0.6, 0.8 and 1M. Monosaccharides such as D-glucose, D-fructose, D-mannose and D-galactose which are present in nature in large quantities and D-allose, D-altrose, D-psicose, L-psicose, D-sorbose, L-sorbose, D-tagatose, L-tagatose and L-fructose as rare sugars were used. Further, trehalose as disaccharide was used. The cells frozen with D-allose were freeze-preserved at −80° C. and in liquid nitrogen for 24 hours, 1 week and 4 weeks. 2) Cell growth: The cells were freeze-preserved with D-allose and trehalose at optimum concentrations for 24 hours, thawed, and spread on a 96-well plate such that the concentration was 0.5-1×10^4 cells/well/0.1 ml. After a prescribed period of time, the cell growth was measured by MTT assay."}, "[3]": {"test_system": "NIH3T3, OVCAR-3, HaCaT and HFB cells", "assay": "Cell preservation with DMSO plus rare sugar, growth after thawing (Example 1)", "type": "cell-based, human, mouse", "details": "DMSO decreased to 1%, sub-optimal condition (FIG. 4, FIG. 5)", "procedure": "1. Cells used: Hela (human cervical cancer), OVCAR-3 (human ovarian cancer), HuH-7 (human liver cancer), HaCaT (human skin keratinocyte), HFB (human fibroblast) and NIH3T3 (mouse fibroblast). Saccharides D-allose and the like were added to culture medium, Cell Banker (commercially available preservative solution) and DMSO at concentrations of 25 mM and 50 mM. Monosaccharides such as D-glucose, D-fructose, D-mannose and D-galactose which are present in nature in large quantities and D-allose, D-psicose, D-altrose, allitol, D-talitol and L-sorbose as rare sugars were used. Further, trehalose as disaccharide was used. The cells were preserved for 24 hours by being frozen at −80° C. 2) Cell growth: One day later, the cells were thawed, and 0.25˜2×10^4 cells/well were spread on 96-well plate with 0.1 mL medium. After a prescribed period of time, the cell growth was measured by MTT assay. 4) Since DMSO (dimethyl sulfoxide) is also commonly added to culture medium at a rate of 10% and used in freeze-preservation, the effect of rare sugar was examined in the system of DMSO. The difference in effect of rare sugar is hardly observed in a system using 10% DMSO, the effect of cell preservation was comparatively examined under a sub-optimal condition by decreasing the concentration of DMSO to 1%. NIH3T3, OVCAR-3, HaCaT and HFB cells and the like were used. […]"}, "HFB (human fibroblast)": {"test_system": "HFB (human fibroblast)", "assay": "Survival rate of cells after freeze-preservation at −80° C. for 24 hours, trypan blue (Example 1)", "type": "cell-based", "details": "concentration 50 mM (foregoing studies)", "procedure": "1. Cells used: Hela (human cervical cancer), OVCAR-3 (human ovarian cancer), HuH-7 (human liver cancer), HaCaT (human skin keratinocyte), HFB (human fibroblast) and NIH3T3 (mouse fibroblast). Saccharides D-allose and the like were added to culture medium, Cell Banker (commercially available preservative solution) and DMSO at concentrations of 25 mM and 50 mM. Monosaccharides such as D-glucose, D-fructose, D-mannose and D-galactose which are present in nature in large quantities and D-allose, D-psicose, D-altrose, allitol, D-talitol and L-sorbose as rare sugars were used. Further, trehalose as disaccharide was used. The cells were preserved for 24 hours by being frozen at −80° C. 1) Survival rate of cells: One day later, the cells were thawed, and the survival rate was estimated by trypan blue dying method."}, "human sperms": {"test_system": "human sperms", "assay": "Movement rate of frozen and thawed sperms, visual observation with Makler Counting Chamber", "type": "cell-based", "details": "KS-II solution with D-allose alone versus glucose only, liquid nitrogen 1 month, P=0.0469 (FIG. 16)", "procedure": "Semens of ten healthy men who were 24 to 44 years old (mean: 29.9) with normal semens were used.\nThe semen was manually collected after abstinence for 3 to 5 days, liquefied at room temperature, and then washed and concentrated by a 80% Percoll liquid agitation density gradient method. The resulting sperm turbid solution (0.2 ml) and the freeze-preservative solution were mixed in equal amounts, and the mixture was charged into a freezing tube (serum tube, Sumitomo Bakelite), frozen by a liquid nitrogen vapor freezing method, and then preserved in a liquid nitrogen tank. The freeze-preservative solution (refer to FIG. 14) was used such that the mixing amounts of D-allose and D-glucose were changed (A group=1:0, B group=3:1, C group=1:1, D group=1:3, E group=0:1) without changing the number of moles of the sugar in a KS-II sperm preservative solution. One month later, the frozen sperms were thawed in warm water (30° C.) with shaking. Further, for removal of the freeze-preservative solution and reconcentration, the density gradient centrifugation method was conducted, and the resulting sperm floating solution was examined.\nAs the examination method, the sperm movement rate was measured by a visual observation method with Makler Counting Chamber and C-IMAGING SYSTEMS, and the survival rate was measured by 0.5% Eosin Y dying. […]"}}}
{"smiles": "O=C[C@H](O)[C@H](O)[C@H](O)[C@H](O)CO", "note": "[D-allose]", "values": [{"measurement": "antioxidation activity", "setting": "[1]", "result": "proved to have the antioxidation activity"}, {"measurement": "MPO as the index of accumulation of leukocytes", "setting": "MPO", "result": "inhibited"}, {"measurement": "growth rate of cells after thawing", "setting": "[2]; freeze-preserved 24 hours at optimum concentration, versus other cases (FIG. 8)", "result": "higher in growth rate"}, {"measurement": "functional impairment of frozen cells", "setting": "[2]; versus commercially available Cell Banker cell preservative solution", "result": "less impaired functionally"}, {"measurement": "effect of preservation with DMSO", "setting": "[3]", "result": "improved"}, {"measurement": "improvement effect as preservative agent", "setting": "HFB (human fibroblast)", "result": "no great improvement effect was obtained"}, {"measurement": "movement rate of thawed sperms", "setting": "human sperms", "result": "high in movement rate of thawed sperms in the eight of nine cases"}]}
